Experimental data as given in article PMC5919655, “Practical spectrophotometric assay for the dapE-encoded N-succinyl-L,L-diaminopimelic acid desuccinylase, a potential antibiotic target” (PLoS ONE, 2018).

Columns and labels:
[1] = molecular target: T1, succinyl-diaminopimelate desuccinylase (HiDapE) (Haemophilus influenzae, UniProt P44514); assay: hydrolysis by purified HiDapE monitored at […] nm (kcat/Km); assay type: biochemical
T1 construct: gene dapE; recombinant HiDapE, His6-tag cleaved with TEV protease

[2] = molecular target: T1, succinyl-diaminopimelate desuccinylase (HiDapE); assay: ninhydrin-based assay of purified HiDapE with N6-methyl-L,L-SDAP substrate, […] nm; assay type: biochemical

T1 sequence (P44514 whole entry): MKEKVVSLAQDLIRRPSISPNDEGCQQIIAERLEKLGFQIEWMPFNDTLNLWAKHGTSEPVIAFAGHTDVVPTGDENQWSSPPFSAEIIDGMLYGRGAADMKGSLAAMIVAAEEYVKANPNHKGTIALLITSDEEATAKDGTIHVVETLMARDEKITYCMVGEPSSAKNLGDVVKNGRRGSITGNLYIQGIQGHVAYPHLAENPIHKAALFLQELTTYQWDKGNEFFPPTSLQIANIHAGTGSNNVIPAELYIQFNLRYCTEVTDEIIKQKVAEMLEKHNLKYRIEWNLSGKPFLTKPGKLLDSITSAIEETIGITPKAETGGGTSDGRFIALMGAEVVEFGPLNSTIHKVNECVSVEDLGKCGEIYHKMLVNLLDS

Row | SMILES | hydrolysis by purified HiDapE monitored at 225 nm (kcat/Km) [1] | IC50 [2] [µM]
1 | CN[C@@H](CCC[C@H](NC(=O)CCC(=O)O)C(=O)O)C(=O)O [1b, (2S,6S)-2-(3-Carboxypropanamido)-6-(methylamino)heptanedioic acid] | 3.87x 10^4 M^-1S^-1 | –
2 | O=C(O)c1cccc(S)c1 [3-mercaptobenzoic acid] | – | 21.8
3 | OB(O)c1cccs1 [2-thiopheneboronic acid] | – | 111
